Patent US20250024871A1, “AMIDE COMPOUNDS AND THEIR USE AS FLAVOR MODIFIERS” (Firmenich Incorporated, priority 2021, published 2025)

Target: T1, T1R umami taste receptor (Homo sapiens, UniProt Q7RTX0+Q7RTX1)
T1 sequence (Q7RTX1 21-841): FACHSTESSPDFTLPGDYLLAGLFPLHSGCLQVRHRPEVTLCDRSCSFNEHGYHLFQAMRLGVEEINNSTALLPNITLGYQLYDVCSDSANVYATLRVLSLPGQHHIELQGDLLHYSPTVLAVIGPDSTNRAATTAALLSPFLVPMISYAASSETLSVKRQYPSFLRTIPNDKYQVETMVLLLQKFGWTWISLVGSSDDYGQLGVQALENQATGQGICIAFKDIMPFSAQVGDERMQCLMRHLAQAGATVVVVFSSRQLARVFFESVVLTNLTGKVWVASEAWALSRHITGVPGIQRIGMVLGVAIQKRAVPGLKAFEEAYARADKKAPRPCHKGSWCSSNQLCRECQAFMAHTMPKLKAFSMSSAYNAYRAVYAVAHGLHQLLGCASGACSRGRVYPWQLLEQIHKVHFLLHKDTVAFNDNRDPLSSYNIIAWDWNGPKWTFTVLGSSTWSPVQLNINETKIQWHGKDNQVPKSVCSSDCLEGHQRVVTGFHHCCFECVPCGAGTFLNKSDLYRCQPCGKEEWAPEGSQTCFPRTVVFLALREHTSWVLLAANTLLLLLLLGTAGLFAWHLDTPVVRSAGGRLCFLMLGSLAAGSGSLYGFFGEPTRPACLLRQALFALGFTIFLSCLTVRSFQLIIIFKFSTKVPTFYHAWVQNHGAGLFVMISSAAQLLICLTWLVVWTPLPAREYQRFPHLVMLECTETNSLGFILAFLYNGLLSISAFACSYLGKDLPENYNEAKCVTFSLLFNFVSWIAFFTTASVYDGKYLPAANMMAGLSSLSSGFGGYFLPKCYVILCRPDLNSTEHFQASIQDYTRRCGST
T1 sequence (Q7RTX0 21-852): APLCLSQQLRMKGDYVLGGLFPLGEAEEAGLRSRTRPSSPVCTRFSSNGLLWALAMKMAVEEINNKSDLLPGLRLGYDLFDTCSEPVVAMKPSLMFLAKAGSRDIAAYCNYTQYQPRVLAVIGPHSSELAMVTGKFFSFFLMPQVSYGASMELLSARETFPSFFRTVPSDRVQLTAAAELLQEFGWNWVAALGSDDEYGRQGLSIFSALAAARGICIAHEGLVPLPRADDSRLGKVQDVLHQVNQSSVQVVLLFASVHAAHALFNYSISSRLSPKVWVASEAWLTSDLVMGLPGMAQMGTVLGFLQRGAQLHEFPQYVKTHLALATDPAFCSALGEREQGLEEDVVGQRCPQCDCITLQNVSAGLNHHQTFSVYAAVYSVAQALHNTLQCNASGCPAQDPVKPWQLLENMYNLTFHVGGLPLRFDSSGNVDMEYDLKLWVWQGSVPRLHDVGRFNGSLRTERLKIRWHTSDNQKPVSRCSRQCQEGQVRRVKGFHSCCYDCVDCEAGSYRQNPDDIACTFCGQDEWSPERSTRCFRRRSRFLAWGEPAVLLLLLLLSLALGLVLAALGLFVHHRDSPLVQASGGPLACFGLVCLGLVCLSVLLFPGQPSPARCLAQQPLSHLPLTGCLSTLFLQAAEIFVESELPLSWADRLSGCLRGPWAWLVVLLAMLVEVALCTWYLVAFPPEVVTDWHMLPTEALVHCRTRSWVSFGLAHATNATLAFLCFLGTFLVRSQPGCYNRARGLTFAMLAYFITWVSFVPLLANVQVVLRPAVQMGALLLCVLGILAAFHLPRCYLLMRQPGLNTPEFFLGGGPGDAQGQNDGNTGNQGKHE
Experiment: in vitro cell-based assay having cells that express the T1R umami taste receptor (enhancement of MSG)
Details: for EC50: cells expressing T1R umami taste receptor, read-out: EC50 for enhancement of MSG binding
Procedure: Each of Compounds 101-183 was synthesized according to one of the general procedures set forth above in Examples 1. Thereafter, the compounds were tested in an in vitro cell-based assay having cells that express the T1R umami taste receptor. Dose-binding curves were recorded and the EC50 was determined for enhancement of MSG binding. Table 2 sets forth the calculated EC50 values for certain tested compounds as well as the MSG enhancement ratio at a particular concentration.

EC50 [µM] | MSG Enh. Ratio (compound at 50 μM) | Compound | other results
> 50 | 4.5 @ | C/C=C/C=C/C(=O)N[C@@H](CC(C)C)C(=O)OCC [Compound 181, Ethyl ((2E,4E)-hexa-2,4-dienoyl)-L-leucinate] | 
1 |  | CCOc1ccc(/C=C/C(=O)N[C@@H](Cc2ccccc2)C(=O)OC)cc1 [Compound 155, Methyl (E)-(3-(4-ethoxyphenyl)acryloyl)-L-phenylalaninate] | MSG Enh. Ratio (compound at 0.3 μM): 8.1 @
36 | 6.5 @ | COC(=O)[C@H](Cc1ccccc1)NC(=O)c1ccc(OC)cc1 [Compound 105, Methyl (4-methoxybenzoyl)-L-phenylalaninate] | 
> 50 | 2.5 @ | COC(=O)[C@H](Cc1ccccc1)NC(=O)c1ccc(OC)c(OC)c1 [Compound 123, Methyl (3,4-dimethoxybenzoyl)-L-phenylalaninate] | 
> 50 | 3.0 @ | C/C=C/C=C/C(=O)N[C@H](C(=O)OCC)C(C)C [Compound 179, Ethyl ((2E,4E)-hexa-2,4-dienoyl)-L-valinate] | 
11 |  | COC(=O)[C@H](CC(C)C)NC(=O)/C=C/c1ccc(OC)cc1 [Compound 149, Methyl (E)-(3-(4-methoxyphenyl)acryloyl)-L-leucinate] | MSG Enh. Ratio (compound at 3 μM): 4.5 @
11.1 |  | COC(=O)[C@@H](NC(=O)c1ccc(C)c(C)c1)C(C)C [Compound 117, Methyl (3,4-dimethylbenzoyl)-L-valinate] | MSG Enh. Ratio (compound at 3 μM): 4.6 @
12 |  | CCOC(=O)[C@H](Cc1ccc(OC)cc1)NC(=O)c1ccc(C)c(C)c1 [Compound 121, Ethyl (S)-2-(3,4-dimethylbenzamido)-3-(4-methoxyphenyl)propanoate] | MSG Enh. Ratio (compound at 10 μM): 7.0 @
> 50 | 5.6 @ | CCC/C=C/C(=O)N[C@@H](CCC(=O)OCC)C(=O)OCC [Compound 178, Diethyl (E)-hex-2-enoyl-L-glutamate] | 
0.3 |  | COC(=O)[C@@H](Cc1ccccc1)NC(=O)c1ccc(C)c(C)c1 [Compound 113, Methyl (3,4-dimethylbenzoyl)-D-phenylalaninate] | 
> 50 | 2.4 @ | CCOC(=O)[C@@H](NC(=O)/C=C/c1ccc2c(c1)OCO2)[C@@H](C)CC [Compound 163, Ethyl ((E)-3-(benzo[d][1,3]dioxol-5-yl)acryloyl)-L-isoleucinate] | 
4 |  | CCOC(=O)CC[C@H](NC(=O)/C=C/c1ccc(OCC)cc1)C(=O)OCC [Compound 156, Diethyl (E)-(3-(4-ethoxyphenyl)acryloyl)-L-glutamate] | 
 |  | CCOC(=O)[C@H](Cc1ccccc1)NC(=O)/C=C/c1ccc(OC)c(OC)c1 [Compound 158, Ethyl (E)-(3-(3,4-dimethoxyphenyl)acryloyl)-L-phenylalaninate] | MSG Enh. Ratio (compound at 10 μM): 4.8 @
0.7 |  | CCOc1ccc(C(=O)N[C@H](CC(C)C)C(=O)OC)cc1 [Compound 109, Methyl (4-ethoxybenzoyl)-D-leucinate] | 
> 50 | 2.8 @ | C/C=C/C=C/C(=O)N[C@H](C(=O)OCC)[C@@H](C)CC [Compound 183, Ethyl ((2E,4E)-hexa-2,4-dienoyl)-L-isoleucinate] | 
1 |  | CCOC(=O)[C@H](NC(=O)/C=C/c1ccc(OC)cc1)C(C)C [Compound 145, Ethyl (E)-(3-(4-methoxyphenyl)acryloyl)-D-valinate] | 
> 50 | 3.9 @ | CCOC(=O)[C@H](Cc1ccccc1)NC(=O)/C=C/c1ccc2c(c1)OCO2 [Compound 160, Ethyl (E)-(3-(benzo[d][1,3]dioxol-5-yl)acryloyl)-L-phenylalaninate] | 

EC50 [µM] | MSG Enh. Ratio (compound at 50 μM) | Compound | other results
8 |  | COC(=O)[C@H](Cc1ccccc1)NC(=O)c1ccc(C)c(C)c1 [Compound 119, Methyl (3,4-dimethylbenzoyl)-L-phenylalaninate] | MSG Enh. Ratio (compound at 3 μM): 4.6 @
23 |  | CCOC(=O)[C@@H](NC(=O)/C=C/c1ccccc1)C(C)C [Compound 136, Ethyl cinnamoyl-L-valinate] | MSG Enh. Ratio (compound at 10 μM): 5.4 @
> 50 | 3.4 @ | CCOC(=O)[C@H](CC(C)C)NC(=O)/C=C/c1ccc2c(c1)OCO2 [Compound 162, Ethyl (E)-(3-(benzo[d][1,3]dioxol-5-yl)acryloyl)-L-leucinate] | 
> 50 | 2.7 @ | CCOC(=O)[C@@H](NC(=O)c1cccc(OC)c1)C(C)C [Compound 108, Ethyl (3-methoxybenzoyl)-L-valinate] | 
~40 | 8.8 @ | CCC/C=C/C(=O)N[C@@H](Cc1ccccc1)C(=O)OCC [Compound 177, Ethyl (E)-hex-2-enoyl-L-phenylalaninate] | 
> 50 | 2.0 @ | CCOC(=O)C[C@H](NC(=O)/C=C/c1ccccc1)C(=O)OCC [Compound 138, Diethyl cinnamoyl-L-aspartate] | 
1 |  | CCOC(=O)[C@@H](CC(C)C)NC(=O)/C=C/c1ccc(OC)cc1 [Compound 150, Ethyl (E)-(3-(4-methoxyphenyl)acryloyl)-D-leucinate] | 
 |  | CCOC(=O)[C@H](Cc1ccccc1)NC(=O)/C=C/C(C)C [Compound 172, Ethyl (E)-(4-methylpent-2-enoyl)-L-phenylalaninate] | MSG Enh. Ratio (compound at 10 μM): 3.6 @
 |  | CCOC(=O)[C@H](Cc1ccccc1)NC(=O)/C=C/c1ccccc1 [Compound 141, Ethyl cinnamoyl-L-phenylalaninate] | MSG Enh. Ratio (compound at 10 μM): 5.5 @
> 50 |  | COC(=O)[C@H](Cc1ccccc1)NC(=O)c1ccc(C)cc1 [Compound 104, Methyl (4-methylbenzoyl)-L-phenylalaninate] | MSG Enh. Ratio (compound at 10 μM): 3.3 @
3.34 |  | CCOC(=O)[C@@H](CC(C)C)NC(=O)/C=C/C(C)C [Compound 171, Ethyl (E)-(4-methylpent-2-enoyl)-D-leucinate] | MSG Enh. Ratio (compound at 3 μM): 8.96 @
12 |  | CCOC(=O)[C@H](Cc1ccccc1)NC(=O)c1ccc(C)c(C)c1 [Compound 120, Ethyl (3,4-dimethylbenzoyl)-L-phenylalaninate] | MSG Enh. Ratio (compound at 10 μM): 4.6 @
> 50 | 2.7 @ | CCOC(=O)[C@@H](NC(=O)c1ccc(COC)cc1)C(C)C [Compound 110, Ethyl (4-(methoxymethyl)benzoyl)-L-valinate] | 
> 50 | 3.2 @ | COC(=O)[C@H](Cc1ccccc1)NC(=O)c1cccc(OC)c1 [Compound 107, Methyl (3-methoxybenzoyl)-L-phenylalaninate] | 
> 50 | 3.4 @ | COC(=O)[C@@H](NC(=O)c1ccc2c(c1)OCO2)C(C)C [Compound 127, Methyl (benzo[d][1,3]dioxole-5-carbonyl)-L-valinate] | 
> 50 | 2.8 @ | COC(=O)[C@H](Cc1ccccc1)NC(=O)c1ccccn1 [Compound 112, Methyl picolinoyl-L-phenylalaninate] | 
0.5 |  | CCOC(=O)[C@@H](CC(C)C)NC(=O)c1ccc2c(c1)OCO2 [Compound 130, Ethyl (benzo[d][1,3]dioxole-5-carbonyl)-D-leucinate] | 

Compound | EC50 [µM] | MSG Enh. Ratio (compound at 50 μM) | other results
CCOC(=O)[C@H](CC(C)C)NC(=O)/C=C/C(C)C [Compound 169, Ethyl (E)-(4-methylpent-2-enoyl)-L-leucinate] | 12.9 |  | MSG Enh. Ratio (compound at 3 μM): 4.2 @
